This assay has as its system m-IMCD3 cells. Put plainly: Inhibition of PGE2-stimulated in vitro cyst formation in 3D culture of m-IMCD3 cells (Experiment 4). The assay is classed as cell-based, mouse. The note with it: Mus musculus, mIMCD3, 144 h, 10 μM test compound, mean cyst area compared to 100% for (DMSO + PGE2) and 0% for DMSO control, read-out: % Cyst area* after incubation with 10 μM test compound. Here is the method: HEK 293 and MDCK cells (Public Health England, Cell Culture Collections) were maintained in Dulbecco's Modified Eagle's Medium (DMEM) supplemented with 10% (v/v) fetal bovine serum (FBS) (Seralab), 2 mM L-glutamine and 100 U/ml penicillin streptomycin cocktail (ThermoFisher); termed complete media. Clonal HEK 293 cell lines were maintained in complete media supplemented with 0.6 mg/mL G418 (Enzo Life Sciences). Mouse inner medullary collecting duct (m-IMCD3) cells [American Type Culture Collection (ATCC)] were maintained in media consisting of DMEM/Hams F-12 50/50 Mix (DMEM F12; Corning) supplemented with penicillin streptomycin cocktail (100 U/ml) and FBS (10% v/v) (DMEM F12-10% FBS).
The mouse Inner Medullary Collecting Duct cell line (m-IMCD3) spontaneously forms cystic spheroids in 3D culture with a Type 1 collagen/Matrigel extracellular matrix. This process can be stimulated with agents which raise intracellular cAMP and is used as an in vitro model for the formation of cystic structures in the kidneys of patients with ADPKD.
Rat Collagen I (Fisher Scientific) is prepared on ice by neutralising with 1 M NaOH and diluting with a 2×volume of DMEM/F12+10% FBS. This is mixed 1:1.1 with ice cold Matrigel (Corning) for coating plates (coating mix), and 1:0.93 with Matrigel for cell plating (plating mix).
The assay is conducted in the wells of a 96-well plate culture dish using a total volume of 130 μL of collagen/Matrigel/DMEM F12-10% FBS suspension in growth media for each matrix plug per individual well. Initially, 30 μL of collagen/Matrigel/DMEM F12-10% FBS (coating mix) is added into the well of a 96 well plate and the collagen is set to a gel by incubating at 37° C. for at least 15 minutes. A second layer of 100 μL collagen/Matrigel suspension (plating mix) containing m-IMCD3 cells (2.75×10^6 m-IMCD3 cells per 96-well plate) is layered over the coating mix and the collagen/Matrigel/cell mix again set to a gel by incubating at 37° C. Cell cultures are maintained at 37° C. in an atmosphere of 5% CO2, 95% air.
Between 18 and 24 h after plating, test compound(s) as DMSO stock solutions [0.1% (v/v) final DMSO concentration] and PGE2 (100 nM final concentration) in DMEM F12-10% FBS are added in quadruplicate wells per condition. Media, together with the test compound and PGE2 are replenished after 2 or 3 days. After 6 days of culture z stack images of the wells are captured using the Nikon Eclipse Ti2-E microscope. Nikon General Analysis software is used to measure the following parameters in each well: the mean cyst area, the number of cysts, and the total cyst area.
PDE4 long form activators inhibited in vitro cyst formation in m-IMCD3 cells. Data are shown in FIG. 2 and Table 4 as mean cyst area (%), compared to 100% for (DMSO+PGE2) and 0% for DMSO control.
As for `Cc1ccc(-c2nc3cc(C(=O)N[C@H]4CCOc5ccccc54)ccc3[nH]2)cn1` [Example 2, (S)—N-(chroman-4-yl)-2-(6-methylpyridin-3-yl)-1H-benzo[d]imidazole-5-carboxamide], the activity at 10 µM was 17%.
In the case of `Cc1cncc(-c2nc3cc(C(=O)N[C@H]4CCOc5ccccc54)ccc3[nH]2)c1` [Example 4, (S)—N-(chroman-4-yl)-2-(5-methylpyridin-3-yl)-1H-benzo[d]imidazole-5-carboxamide], the activity at 10 µM stood at 18%.
Consider `Cc1cncc(-c2nc3ccc(C(=O)N[C@H]4CCOc5ccccc54)cc3n2C)c1` [Example 28, (S)—N-(chroman-4-yl)-1-methyl-2-(5-methylpyridin-3-yl)-1H-benzo[d]imidazole-6-carboxamide], for which the activity at 10 µM turned out to be 8%.
On to `Cc1ccncc1-c1nc2cc(C(=O)N[C@H]3CCOc4ccccc43)ccn2n1` [Example 53, (S)—N-(chroman-4-yl)-2-(4-methylpyridin-3-yl)-[1,2,4]triazolo[1,5-a]pyridine-7-carboxamide], for which the activity at 10 µM was found to be 20%.
